Assay results reported in PMC6218249 (Bioorganic & medicinal chemistry letters, 2018).
Values after ≈ are worked out from the molar mass of the structure shown.

Tests used:
[1] = In vivo pharmacokinetics in C57BL/6 mice; conditions: C57BL/6, mouse, plasma, other: intravenous and oral, 3 mg/kg
physchem = conditions: pH 7.4

Compound	PAMPA (x10^−6 cm/s) (PAMPA permeability)	half-life [1] [h]	solubility (physchem) [µM]
NS(=O)(=O)c1ccc(-c2cnn3cc(-c4ccc(N5CCNCC5)nc4)cnc23)c2ccccc12 [Compound 12]	8.3 x10^−6 cm/s		
CN(C)CCOc1ccc(-c2cnc3c(-c4ccc(S(N)(=O)=O)c5ccccc45)cnn3c2)cn1 [Compound 13]	8.8 x10^−6 cm/s		
NS(=O)(=O)c1ccc(-c2cnn3cc(-c4ccc(OCCN5CCCCC5)nc4)cnc23)c2ccccc12 [Compound 14]	364.7 x10^−6 cm/s		
NS(=O)(=O)c1ccc(-c2cnn3cc(-c4ccc(C5CCNCC5)cc4)cnc23)c2ccccc12 [Compound 15]	78.6 x10^−6 cm/s		
CC(C)(CN1CCCCC1)Oc1ccc(-c2cnc3c(-c4ccc(S(N)(=O)=O)c5ccccc45)cnn3c2)cc1 [Compound 17]	1920.5 x10^−6 cm/s		
NS(=O)(=O)c1ccc(-c2cnn3cc(-c4ccc(OCCN5CCCC5)cc4)cnc23)c2ccccc12 [Compound 18]	317 x10^−6 cm/s		
CC(C)(N)c1ccc(-c2cnc3c(-c4ccc(S(N)(=O)=O)c5ccccc45)cnn3c2)cc1 [Compound 20]	9.4 x10^−6 cm/s		
NS(=O)(=O)c1ccc(-c2cnn3cc(-c4ccc(CN5CCCC5)cc4)cnc23)c2ccccc12 [Compound 22]	467 x10^−6 cm/s		
CC(c1ccc(-c2cnc3c(-c4ccc(S(N)(=O)=O)c5ccccc45)cnn3c2)cc1)N1CCCC1 (centres unmarked) [Compound 23]	1116.0 x10^−6 cm/s	3 to 4	14 (≈ 6.97 µg/mL)
